Laboratory results reported in patent US8685919B2 (Zealand Pharma A/S, priority 2008, dated 2014).
“Also recorded” adds a separate entry of the source. Read-outs that look alike come from different tables or passages of the source. Peptide text beside a SMILES is read from it.

Experiments:
human GLP-1-R = biological target: T1, human GLP-1-R (Homo sapiens, UniProt P43220); experiment: GLP-1-receptor efficacy assay (cAMP in HEK293 cells); type: cell-based
T1 construct: expressed in transfected cells
Experimental: The 5′-end primers additionally encoded a near Kozak consensus sequence to ensure efficient translation.
48 hr after transfection cells were seeded for limited dilution cloning and selected with 1 mg/ml G418 in the culture medium.
On the day of analysis, growth medium was removed and the cells washed once with 200 μl Tyrode buffer. Cells were incubated in 100 μl Tyrode buffer containing increasing concentrations of test peptides, 100 μM IBMX, and 6 mM glucose for 15 min at 37° C. The reaction was stopped by addition of 25 μl 0.5 M HCl and incubated on ice for 60 min. The cAMP content was estimated using the FlashPlate® cAMP kit from Perkin-Elmer.

[1] = tested on: primary rat adipocyte cultures; type: cell-based
Experimental: Adipocytes were isolated from epididymal fat dissected from normal young adult Sprague-Dawley rats. The fat lumps were minced, incubated and shaken (220 rpm) with collagenase (1 mg/ml) in Krebs-Ringer buffer containing 4% BSA (KRB-BSA) for 60 minutes at 37° C. The suspension was filtered through a nylon filter (160 μm pore size) and the filtrate centrifuged at 200×g for 3 min. The subjacent medium beneath the upper floating layer of adipocytes was removed with a Pasteur-pipette. The adipocytes were washed 3 times in KRB-BSA buffer by re-suspension and centrifugation. The adipocytes were re-suspended in KRB-BSA, mixed, incubated in and shaken with test compounds in 96-deep well plates (50,000 cells/well) in a total volume of 1 ml at 37° C. for 60 min. The plates were placed on ice for at least 10 min after incubation followed by centrifugation at 200×g for 3 min. 300 μl of the buffer beneath the adipocyte layer were collected in a 96-deep well plate. This process was repeated two more times and the 3 extracts collected from each culture pooled together.

[2] = tested on: diet induced obese (DIO) mice; experiment: 28 day treatment of diet induced obese (DIO) mice: body weight gain; type: in vivo
Experimental: Four weeks before drug treatments, C57BI/6 male mice (7 weeks)) (N=10-12 animals in each group) were put on high fat diet (HFD) and their day-night cycle reversed with lights On/Off at 2000/0800 hour. Experimental animals were conditioned to treatment by daily injections (s.c.) of 0.1 ml vehicle and acclimatized to handling by weighing them twice a week one week before start of drug administrations. The day before start of experiment, mice were stratified into groups with similar body weight (BW) and the next day groups of stratified mice were treated (b.i.d.; s.c.) with ZP2669 (SEQ ID NO: 4) (500 nmol/kg) or vehicle (Acetate-buffer). ZP2669 (SEQ ID NO: 4) was given in isotonic acetate buffer (pH 4.8; 2.5 μl/g BW). […] Body weights were recorded daily and used to administer the body weight-corrected doses of peptide throughout the study. […] Blood plasma samples were stored at −80° C. until analyzed for cholesterol, HDL and LDL using commercially available kits. Body weight gains throughout the treatment period were calculated for each animal by subtracting its weight at the initiation of treatment.
The effects of treatment on body weight gain and cholesterols were assessed by 2-way ANOVA with repeated measures and Bonferoni post-hoc analyses, using GraphPad Prism version 4. […]

[3] = tested on: diet induced obese (DIO) mice; experiment: 28 day treatment of DIO mice: plasma cholesterols (cholesterol, HDL, LDL); type: in vivo; conditions: DIO mice treated 4 weeks b.i.d., compared to vehicle
Experimental: Four weeks before drug treatments, C57BI/6 male mice (7 weeks)) (N=10-12 animals in each group) were put on high fat diet (HFD) and their day-night cycle reversed with lights On/Off at 2000/0800 hour. Experimental animals were conditioned to treatment by daily injections (s.c.) of 0.1 ml vehicle and acclimatized to handling by weighing them twice a week one week before start of drug administrations. […] A non-obese control group maintained on regular chow was treated with vehicle in the same treatment regime as the DIO groups. Body weights were recorded daily and used to administer the body weight-corrected doses of peptide throughout the study. Animals were fasted overnight before sacrifice. An eye blood sample (0.6 ml EDTA) was obtained the following morning immediately before cervical dislocation. Blood plasma samples were stored at −80° C. until analyzed for cholesterol, HDL and LDL using commercially available kits. Body weight gains throughout the treatment period were calculated for each animal by subtracting its weight at the initiation of treatment.
The effects of treatment on body weight gain and cholesterols were assessed by 2-way ANOVA with repeated measures and Bonferoni post-hoc analyses, using GraphPad Prism version 4. Differences were considered significant at the p<0.05 level.

C57BI/6 mice = experiment: Food intake in normal mice; type: in vivo; conditions: fasted mice, s.c.; PYY3-36 30 nmol/kg, glucagon 500 nmol/kg, ZP2669 500 nmol/kg
Source text: Differences were considered significant at the p<0.05 level.

db/db mice = experiment: Oral glucose tolerance test (OGTT) in db/db mice; type: in vivo; conditions: 45 nmol/kg i.p.
Experimental: Db/db mice were fasted overnight and an initial blood sample (fasting blood glucose level) taken just before administration (i.p.) of vehicle (Acetate buffer, 20 mM acetic acid, 250 mM mannitol, pH 5.0) or the test compound ZP2669 (SEQ ID NO: 4) (45 nmol/kg in acetate buffer). The animals were kept fasted during the experiment to prevent confounding food intake. Fifteen minutes later an oral dose of glucose (1 g/kg in 5 ml/kg) was given and BG levels were measured at t=30 min, t=60 min, t=120 min and t=240 min.
Difference from baseline (t=0) was calculated for each time point and AUC0-240 min values were determined. Statistical analyses of AUC values by one-way ANOVA and Dunnetts post-hoc analyses were performed with GraphPad Prism version 4. Differences were considered significant at the p<0.05 level.

T1 sequence (P43220 24-463): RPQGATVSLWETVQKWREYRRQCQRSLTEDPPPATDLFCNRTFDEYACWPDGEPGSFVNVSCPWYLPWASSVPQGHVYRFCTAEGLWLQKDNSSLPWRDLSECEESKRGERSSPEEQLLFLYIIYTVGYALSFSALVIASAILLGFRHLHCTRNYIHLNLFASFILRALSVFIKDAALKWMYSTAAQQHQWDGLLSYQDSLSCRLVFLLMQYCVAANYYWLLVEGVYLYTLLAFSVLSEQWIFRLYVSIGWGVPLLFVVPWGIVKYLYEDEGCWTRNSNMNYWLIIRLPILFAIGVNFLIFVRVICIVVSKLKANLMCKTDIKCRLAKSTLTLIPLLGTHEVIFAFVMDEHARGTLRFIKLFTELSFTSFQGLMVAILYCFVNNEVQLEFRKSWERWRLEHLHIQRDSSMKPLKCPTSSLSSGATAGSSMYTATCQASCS

CC(C)C[C@H](NC(=O)[C@H](CC(C)C)NC(=O)[C@H](Cc1c[nH]c2ccccc12)NC(=O)[C@H](CCC(N)=O)NC(=O)[C@@H](NC(=O)[C@H](Cc1ccccc1)NC(=O)[C@H](CC(=O)O)NC(=O)[C@H](Cc1c[nH]cn1)NC(=O)[C@H](C)NC(=O)[C@H](C)NC(=O)[C@H](CCCCN)NC(=O)[C@H](CO)NC(=O)[C@H](CC(=O)O)NC(=O)[C@H](CC(C)C)NC(=O)[C@H](Cc1ccc(O)cc1)NC(=O)[C@H](CCCCN)NC(=O)[C@H](CO)NC(=O)[C@H](Cc1ccc(O)cc1)NC(=O)[C@H](CC(=O)O)NC(=O)[C@H](CO)NC(=O)[C@@H](NC(=O)[C@H](Cc1ccccc1)NC(=O)[C@@H](NC(=O)CNC(=O)[C@H](CCC(N)=O)NC(=O)[C@H](CO)NC(=O)[C@@H](N)Cc1c[nH]cn1)[C@@H](C)O)[C@@H](C)O)C(C)C)C(=O)N[C@@H](CCCNC(=N)N)C(=O)N[C@@H](C)C(N)=O [Compound L006-0172] (H-HSQGTFTSDYSKYLDSKAAHDFVQWLLRA-NH2) was tested, and the EC50 (human GLP-1-R; read-out: GLP-1R EC50 (nM), crude peptides marked *) was 21 nM.
CSCC[C@H](NC(=O)[C@H](CC(C)C)NC(=O)[C@H](Cc1c[nH]c2ccccc12)NC(=O)[C@H](CCC(N)=O)NC(=O)[C@@H](NC(=O)[C@H](Cc1ccccc1)NC(=O)[C@H](CC(=O)O)NC(=O)[C@H](CCC(N)=O)NC(=O)[C@H](C)NC(=O)[C@H](C)NC(=O)[C@H](CCCCN)NC(=O)[C@H](CO)NC(=O)[C@H](CC(=O)O)NC(=O)[C@H](CC(C)C)NC(=O)[C@H](Cc1ccc(O)cc1)NC(=O)[C@H](CCCCN)NC(=O)[C@H](CO)NC(=O)[C@H](Cc1ccc(O)cc1)NC(=O)[C@H](CC(=O)O)NC(=O)[C@H](CO)NC(=O)[C@@H](NC(=O)[C@H](Cc1ccccc1)NC(=O)[C@@H](NC(=O)CNC(=O)[C@H](CCC(N)=O)NC(=O)[C@H](CO)NC(=O)[C@@H](N)Cc1c[nH]cn1)[C@@H](C)O)[C@@H](C)O)C(C)C)C(=O)N[C@@H](CC(N)=O)C(=O)N[C@H](C(N)=O)[C@@H](C)O [ZP2667] (H-HSQGTFTSDYSKYLDSKAAQDFVQWLMNT-NH2) was tested, and the EC50 [1] was 0.75 nM, the “Lipolysis potency relative to OXM” value ([1]; primary adipocyte cultures) was 240 times and the “Lipolysis potency relative to glucagon” value ([1]; primary adipocyte cultures) was 8 times.
With CC(C)C[C@H](NC(=O)[C@H](CCCCN)NC(=O)[C@H](CC(C)C)NC(=O)[C@H](Cc1c[nH]c2ccccc12)NC(=O)[C@H](CCCNC(=N)N)NC(=O)[C@@H](NC(=O)[C@H](Cc1ccccc1)NC(=O)[C@H](CC(=O)O)NC(=O)[C@H](CCCNC(=N)N)NC(=O)[C@H](C)NC(=O)[C@H](C)NC(=O)[C@H](CCCCN)NC(=O)[C@H](CO)NC(=O)[C@H](CC(=O)O)NC(=O)[C@H](CC(C)C)NC(=O)[C@H](Cc1ccc(O)cc1)NC(=O)[C@H](CCCCN)NC(=O)[C@H](CO)NC(=O)[C@H](Cc1ccc(O)cc1)NC(=O)[C@H](CC(=O)O)NC(=O)[C@H](CO)NC(=O)[C@@H](NC(=O)[C@H](Cc1ccccc1)NC(=O)[C@@H](NC(=O)CNC(=O)[C@H](CCC(N)=O)NC(=O)[C@H](CO)NC(=O)[C@@H](N)Cc1c[nH]cn1)[C@@H](C)O)[C@@H](C)O)C(C)C)C(=O)N[C@@H](C)C(N)=O [ZP2668] (H-HSQGTFTSDYSKYLDSKAARDFVRWLKLA-NH2) the EC50 (human GLP-1-R; HEK293 cells expressing human GLP-1-R, cAMP, 15 min at 37° C., read-out: GLP-1R EC50) was 0.08 nM, the EC50 [1] was 101 nM and the “Lipolysis potency relative to OXM” value ([1]; primary adipocyte cultures) was “in the same order of magnitude as OXM”.
With CC(C)C[C@H](NC(=O)[C@H](CC(C)C)NC(=O)[C@H](Cc1c[nH]c2ccccc12)NC(=O)[C@H](CCC(=O)O)NC(=O)[C@@H](NC(=O)[C@H](Cc1ccccc1)NC(=O)[C@H](CC(=O)O)NC(=O)[C@H](Cc1c[nH]cn1)NC(=O)[C@H](C)NC(=O)[C@H](C)NC(=O)[C@H](CCCCN)NC(=O)[C@H](CO)NC(=O)[C@H](CC(=O)O)NC(=O)[C@H](CC(C)C)NC(=O)[C@H](Cc1ccc(O)cc1)NC(=O)[C@H](CCCCN)NC(=O)[C@H](CO)NC(=O)[C@H](Cc1ccc(O)cc1)NC(=O)[C@H](CC(=O)O)NC(=O)[C@H](CO)NC(=O)[C@@H](NC(=O)[C@H](Cc1ccccc1)NC(=O)[C@@H](NC(=O)CNC(=O)[C@H](CCC(N)=O)NC(=O)[C@H](CO)NC(=O)[C@@H](N)Cc1c[nH]cn1)[C@@H](C)O)[C@@H](C)O)C(C)C)C(=O)N[C@@H](CCCNC(=N)N)C(=O)N[C@@H](C)C(N)=O [ZP2669] (H-HSQGTFTSDYSKYLDSKAAHDFVEWLLRA-NH2) the “Effect on body weight gain” value ([2]; 500 nmol/kg b.i.d. s.c., 28 days, high fat diet) was “decreased body weight gain to a level similar to that observed with chow feeding”, the “Effect on fat deposition” value ([2]; 4 weeks treatment of DIO mice) was “significantly decreased fat deposition” and the “Effect on HDL/LDL ratios” value [3] was “significant compared to vehicle; also recorded: significant effect”. The “Effect on blood concentration of LDL cholesterol” value [3] was “significant compared to vehicle; also recorded: significant effect”, the “Effect on food intake during the first hour” value (C57BI/6 mice) was “significantly (P<0.05) decreased food intake” and the “Improvement of glucose tolerance” value (db/db mice; 15 min before oral glucose 1 g/kg, AUC0-240 min) was 77.1%. For the same molecule, the “Effect on oral glucose tolerance” value (db/db mice; diabetic db/db mice, result in words) was “significantly (P<0.01) improved glucose tolerance”, the EC50 [1] was 4.6 nM and the “Lipolysis potency relative to OXM” value ([1]; primary adipocyte cultures) was 40 times. For the same molecule, the “Lipolysis potency relative to glucagon” value ([1]; primary adipocyte cultures) was “equipotent with glucagon”.
For Exendin-4 [reference compound], the GLP-1R agonism (human GLP-1-R; result in words) was “very potent GLP-1R agonist”, the Effect on lipolysis ([1]; primary adipocyte cultures, result in words) was “no effect” and the “Stimulation of lipolysis EC50 (nM)” value ([1]; primary rat adipocyte cultures, 60 min at 37° C.) was “No effect”.
“PYY(3-36): internal positive control in the food intake test, anorectic effect [reference compound]” was tested, and the “Effect on food intake during the first hour” value (C57BI/6 mice) was “showed an anorectic effect”.
